These results are taken from patent US9060952B2, “Synergistic preservative blends” (LONZA LTD., priority 2008, dated 2015).

The structures appear in SMILES notation. Read-outs that look alike come from different tables or passages of the source. Bounds are passed on as bounds.

Experiment in all cases: Minimum inhibitory concentration (MIC), broth dilution
One test relates to P. aeruginosa ATCC 9027. Further details: species or system Pseudomonas aeruginosa. The settings on record: for MIC: Pseudomonas aeruginosa. On the procedure:
(§1) Minimum inhibitory concentrations (MIC) were determined for individual components and binary formulations as follows. Individual bacterial suspensions of S. aureus (gram positive), E. coli and P. aeruginosa (both gram negative) and individual fungal suspensions of C. albicans and A. niger were prepared as described in Example 1. Each individual suspension was standardized with PBDW to yield a ˜10^8 CFU/mL or ˜10^7 cells/mL for the individual bacteria and fungi, respectively.
(§2) The individual components and binary formulations were diluted in either DI water or propylene glycol (as appropriate for solubility) to yield a 10,000 ppm total starting active solution. From the 10,000 ppm solution, a 1:9 dilution was made in sterile Nutrient Broth to yield a 1,000 ppm active solution. Five mL of the 1,000 ppm dilution was transferred to five mL of sterile Nutrient Broth (NB) to yield a 500 ppm active solution. This dilution scheme was repeated down to 3.90 ppm active. The same dilutions were made in sterile Sabouraud Dextrose Broth (SDB) for the fungal MIC testing. The series of nine active solutions (3.9 ppm˜1000 ppm) was prepared for each of the five microorganisms to be tested.
(§3) From the E. coli suspension, 0.1 mL was added to each of the nine, 5-mL active solutions in NB. Each tube was mixed thoroughly. This was repeated for each of the bacterial suspensions. Similarly, 0.1 mL of the C. albicans suspension was added to each of the nine, 5-mL active solutions in SDB. This was repeated with A. niger in a separate set of dilutions. Each tube was mixed thoroughly. Controls were prepared for each organism by inoculating 5 mL of NB or SDB, as appropriate. All three sets of bacterial tubes were incubated at 35° C. for 48 hours and the two sets of fungal tubes were incubated at 30° C. for 72 and 120 hours. At the end of the incubation period, the tubes were mixed and visually inspected for turbidity compared to the control. The lowest concentration with a lack of turbidity was recorded as the Minimum Inhibitory Concentration (MIC).
(§4) The synergism value is (QA/Qa+QB/Qb). QA is the concentration of component A in the mixture, Qa is the concentration of component A applied singly, QB is the concentration of component B in the mixture, Qb is the concentration of component B applied singly. When the synergism value is less than one, the mixture is synergistic. Values for (QA/Qa+QB/Qb) of 1 and greater than 1 represent an additive effect and an antagonistic effect, respectively.

In a further test the test system is A. niger ATCC 16404. Further details: species or system Aspergillus niger. How it is done:
as §1, §2
(§5) From the E. coli suspension, 0.1 mL was added to each of the nine, 5-mL active solutions in NB. […] The lowest concentration with a lack of turbidity was recorded as the Minimum Inhibitory Concentration (MIC). […]

The test system of a further test is E. coli ATCC 8739. The arrangement: species or system Escherichia coli. As to conditions: for MIC: Escherichia coli. How it is done:
as §1, §2, §3, §4

Another test relates to C. albicans ATCC 10231. The arrangement: species or system Candida albicans. How it is done: as §1, §2, §5
A further test has as its system S. aureus ATCC 6538. Further details: species or system Staphylococcus aureus. The settings on record: for MIC: Staphylococcus aureus. On the procedure: as §1, §2, §3, §4

For `Cc1cc(CC(C)CC(C)(C)C)n(O)c(=O)c1.NCCO` (stereo not shown) [Piroctone Olamine], the “Qb, concentration of component B applied singly (MIC)” value in the test on P. aeruginosa ATCC 9027 (P. aeruginosa), with A. niger ATCC 16404, with E. coli ATCC 8739 (E. coli), with C. albicans ATCC 10231 and in the test on S. aureus ATCC 6538 (S. aureus) was 62.5 ppm throughout.

`CCCCCCC(O)CO` (stereo not shown) [Caprylyl Glycol]: the figures for the “Qa, concentration of component A applied singly (MIC)” value with P. aeruginosa ATCC 9027 (P. aeruginosa), with E. coli ATCC 8739 (E. coli) and in the test with S. aureus ATCC 6538 (S. aureus) were above 1000 ppm, 1000 ppm and above 1000 ppm, respectively.

On to `CCCCCCCCCCCO` [Undecanol], for which the MIC in the test on P. aeruginosa ATCC 9027 (ATCC9027, P. aeruginosa, read-out: Qa, concentration of component A applied singly (MIC)) was above 1000 µg/mL; with E. coli ATCC 8739 (ATCC8739, E. coli, read-out: Qa, concentration of component A applied singly (MIC)) it was above 1000 µg/mL; in the test with S. aureus ATCC 6538 (ATCC6538, S. aureus, read-out: Qa, concentration of component A applied singly (MIC)) it was above 1000 µg/mL.

`CC(=O)C1C(=O)C=C(C)OC1=O` (stereo not shown) [Dehydroacetic acid]: the MIC with P. aeruginosa ATCC 9027 (ATCC9027, read-out: Qb, concentration of component B applied singly (MIC)) was determined as 500 µg/mL; in the test with E. coli ATCC 8739 (ATCC8739, read-out: Qb, concentration of component B applied singly (MIC)), 500 µg/mL; with S. aureus ATCC 6538 (ATCC6538, read-out: Qb, concentration of component B applied singly (MIC)), 500 µg/mL.

With `Cn1sccc1=O` [Methylisothiazolinone], the “Qa, concentration of component A applied singly (MIC)” value stood at 62.5 ppm in the test with P. aeruginosa ATCC 9027 (P. aeruginosa); 500 ppm in the test on A. niger ATCC 16404; 62.5 ppm with E. coli ATCC 8739 (E. coli); 250 ppm in the test with C. albicans ATCC 10231; 250 ppm in the test with S. aureus ATCC 6538 (S. aureus).
